In patent publication US20190185865A1, “USE OF PROKARYOTIC TRANSCRIPTIONAL ACTIVATORS AS METABOLITE BIOSENSORS IN EUKARYOTIC CELLS” (Danmarks Tekniske Universitet, priority 2016, published 2019):

Assays:
ArgP = target: T1, ArgP (Escherichia coli, UniProt P0A8S1); test: L-arginine induction of ArgP-mediated GFP expression in yeast; format: cell-based; details: 30 mM L-arginine
T1 construct: expressed in transfected cells; host or cells: Saccharomyces cerevisiae CEN.PK113-5A; REV1p or TDH3p, chromosomal integration (TISNO-66/-73)
Procedure: (§1) Events were analyzed using FlowJo software (TreeStar Inc.).
(§2) The genetic device developed in this study represents to the best of our knowledge the first example of transplanting a prokaryotic transcriptional activator into a eukaryotic chassis and successfully using it to activate gene expression without the need for modifying the protein beyond codon optimization. […] To test the generality of the biosensor design for onboarding other small-molecule binding transcriptional activators as biosensors in yeast we selected four other candidates from the LTTR family; FdeR from Herbaspirillum seropedicae, PcaQ from Sinorhizobium meliloti, ArgP from Escherichia coli, and MdcR from Klebsiella pneumonia, with co-inducers naringenin, protocatechuic acid (PCA), L-arginine, and malonic acid, respectively. In this proof-of-principle study we selected the four candidates based on a minimal set of information, including knowledge about operator sequences, experimental evidence for ligand-inducible control of target operons, and their mode-of-action within native chassis (ie. activation, FIG. 1). Furthermore all of these metabolites can passively diffuse across the yeast plasma membrane, with the exception of malonic acid, which requires the expression of the dicarboxylic acid transporter MAE1 from Schizosaccharomyces pombe. […]

MdcR = test: Malonic acid induction of MdcR-mediated GFP expression in yeast; format: cell-based; details: MdcR from TDH3 promoter, MAE1 transporter; 10 mM malonic acid
Procedure: as §1, §2

FdeR = test: Naringenin induction of FdeR-mediated GFP expression in yeast; format: cell-based, Saccharomyces cerevisiae
Text: Strains, chemicals and media. Saccharomyces cerevisiae CEN.PK102-5B (MATa ura3-52 his3Δ1 leu2-3/112 MAL2-8^c SUC2), CEN.PK113-5A (MATa, trp1 his3Δ1 leu2-3/112 MAL2-8^c SUC2) and CEN.PK113-7D (wild type, MATa MAL2-8^c SUC2) strains were obtained from Peter Kotter (Johann Wolfgang Goethe-University Frankfurt, Germany). In principal any other yeast strains may be used, such as one obtained from public repository EuroScarf. EasyClone plasmids used in this work are described in Jensen, N. B. et al. EasyClone: method for iterative chromosomal integration of multiple genes in Saccharomyces cerevisiae. FEMS Yeast Res. 14, 238-48 (2014). Escherichia coli strain DH5a was used as a host for cloning and plasmid propagation. The chemicals and Pfu TURBO DNA polymerase were commercially obtained (Sigma-Aldrich and Agilent Technologies Inc., respectively). All acids used were >97% in purity. S. cerevisiae cells were grown at 30° C. in synthetic complete medium as well as drop-out media and agar plates were prepared using pre-mixed drop-out powders (Sigma-Aldrich). Mineral medium was freshly prepared as described previously. For all media containing diacids, 1.4 mM of the individual diacids were dissolved in mineral medium and pH adjusted to 4.5 before sterile filtration. For CCM several dilutions were made to examine the performance of the CCM biosensor. For naringenin, mineral medium was supplemented with 0, 0.05, 0.10 or 0.20 mM naringenin, dissolved in ethanol, the final ethanol concentration for each medium was 2% (v/v), and the final pH of the medium was adjusted to 6.0. E. coli cells were grown at 37° C. in Luria-Bertani (LB) medium supplemented with 100 μg/mL ampicillin.
as §1
The genetic device developed in this study represents to the best of our knowledge the first example of transplanting a prokaryotic transcriptional activator into a eukaryotic chassis and successfully using it to activate gene expression without the need for modifying the protein beyond codon optimization. […]

[1] = Solubility in growth medium; format: physicochemical; details: aqueous buffer, read-out: concentrations of naringenin soluble in growth medium
209 bp_CYC1p_T1 promoter = test: LTTR-mediated activation of GFP expression from 209 bp_CYC1p_T1 reporter promoter in yeast, without ligand; format: cell-based, Saccharomyces cerevisiae; details: LTTR expressed from weak REV1p promoter
Procedure: as §1, §2

[2] = test system: 209 bp_CYC1p_T1 promoter with MdcO or ArgO; test: Cross-reactivity of LTTRs ArgP and MdcR with operators MdcO and ArgO (flow cytometry); format: cell-based, Saccharomyces cerevisiae; details: ArgP and MdcR with 209 bp_CYC1p_T1 carrying MdcO or ArgO
Text: Many of the characterized LTTRs regulate operons by binding prototypic LTTR box patterns 5′-T-N11-A-3′ and 5′-TTA-N7/8-GAA-3′. In addition to transcriptional orthogonality (FIG. 3b), we therefore further tested if individual LTTRs would cross-react with operators for another LTTR. For this purpose, we expressed LTTRs ArgP and MdcR together with the 209 bp_CYC1p_T1 promoter with operators for MdcR (herein MdcO) or ArgP (herein ArgO) driving the expression of GFP. As controls we tested GFP expression from 209 bp_CYC1p_T1 promoter with MdcO or ArgO without expression of LTTRs. […] This is in agreement with another study on cross-reactivity between promoter and transcriptional regulators of the TetR family, and the fact that LTTR residues in both the conserved N-terminal DNA-binding domains and the divergent EBDs are important for DNA-binding.

yeast transcriptome = test: Transcriptome analysis (RNA-seq) of yeast with or without BenM^H110R, F211V, Y286N; format: cell-based, Saccharomyces cerevisiae; details: 24 h cultivation in the presence of CCM
Procedure: To study the impact of ligand-induced BenM on genome-wide gene expression, triplicate cultures of strains MeLS0138 and MeLS0284 were grown for 24 h at 30° C. in 50 ml mineral medium pH 4.5 with 1.4 mM CCM. […] Briefly, 15 ml samples of the six cultures were harvested into a pre-chilled 50 ml tube with crushed ice and then immediately centrifuged at 4° C., 4000×rpm for 5 min. Subsequently, the pellets were resuspended in 2 ml of RNAlater® Solution (Ambion, Life Technologies) and incubated on ice for 1 h. Next, cells were pelleted by centrifugation (12,000×rpm for 10 s) and transferred to liquid nitrogen, and stored at −80° C. until further analysis. Total RNA extraction was performed using RNeasy® Mini Kit (QIAGEN). […] The quantity and quality of the RNA samples were measured using Qubit 2.0 Fluorometer using the Qubit RNA BR Assay (Thermo Fisher Scientific) and Agilent 2100 Bioanalyzer using the RNA 6000 Nano Kit (Agilent Technologies), respectively. For sequencing we used 3 μg of total RNA as input for TruSeq® Stranded mRNA Sample Preparation kit prior to sequencing on the MiSeq System using MiSeq Reagent Kit v3 150 cycles at a 2×75 bp read length configuration (Illumina) obtaining 38 M reads. […]

N=C(N)NCCC[C@H](N)C(=O)O [L-arginine]
ligand-inducible increase in GFP expression (ArgP; ArgP expression controlled by REV1p): significant ligand-inducible increase in GFP expression
induction of GFP expression upon addition of cognate inducer (ArgP; ArgP from TDH3 promoter): further induce GFP expression

O=C(O)CC(=O)O [malonic acid]
induction of GFP expression upon addition of cognate inducer (MdcR): further induce GFP expression

O=C1C[C@@H](c2ccc(O)cc2)Oc2cc(O)cc(O)c21 [naringenin]
induction of GFP expression upon addition of cognate inducer (FdeR; FdeR from TDH3 promoter, 0.2 mM naringenin): further induce GFP expression
maximum increase in GFP expression (FdeR; FdeR from strong TDH3 promoter, 0.2 mM naringenin, 24 h): 1.7 fold
induction of GFP expression (FdeR; FdeR from weak REV1 promoter, any of the tested naringenin concentrations): did not support induction of GFP expression
solubility [1]: < 200 µM

B1: ArgP: LTTR transcriptional activator from Escherichia coli, co-inducer L-arginine (protein, UniProt P0A8S1 1-297, looked up)
HTH-type transcriptional …: MKRPDYRTLQALDAVIRERGFERAAQKLCITQSAVSQRIKQLENMFGQPLLVRTVPPRPTEQGQKLLALLRQVELLEEEWLGDEQTGSTPLLLSLAVNADSLATWLLPALAPVLADSPIRLNLQVEDETRTQERLRRGEVVGAVSIQHQALPSCLVDKLGALDYLFVSSKPFAEKYFPNGVTRSALLKAPVVAFDHLDDMHQAFLQQNFDLPPGSVPCHIVNSSEAFVQLARQGTTCCMIPHLQIEKELASGELIDLTPGLFQRRMLYWHRFAPESRMMRKVTDALLDYGHKVLRQD
activation of GFP expression compared to yeast cells without expression of an LTTR (209 bp_CYC1p_T1 promoter): 2.2 ×
cross-reaction of LTTR with operator for another LTTR [2]: specificity between LTTR transcriptional activators and their inferred operator

B2: BenM^H110R, F211V, Y286N (protein, UniProt O68014 1-304, looked up, variant H110R F211V Y286N)
HTH-type transcriptional …: MELRHLRYFVAVVEEQSFTKAADKLCIAQPPLSRQIQNLEEELGIQLLERGSRPVKTTPEGHFFYQYAIKLLSNVDQMVSMTKRIASVEKTIRIGFVGSLLFGLLPRIIRLYRQAHPNLRIELYEMGTKAQTEALKEGRIDAGFGRLKISDPAIKRTLLRNERLMVAVHASHPLNQMKDKGVHLNDLIDEKILLYPSSPKPNFSTHVMNIVSDHGLEPTKINEVREVQLALGLVAAGEGISLVPASTQSIQLFNLSYVPLLDPDAITPIYIAVRNMEESTYIYSLNETIRQIYAYEGFTEPPNW
average GFP transcript abundance, strain MeLS0284 compared to strain MeLS0138 (yeast transcriptome): approximately 27 fold
decrease in expression level of TCS3 (yeast transcriptome; P<0.05, >2-fold cut-off): 2.3 ×
